Measurements: ChEMBL document CHEMBL4346726 (Bioorg Med Chem Lett, 2019)

Legend:
[1] = Protein binding in cynomolgus monkey plasma; type: ADME, Macaca fascicularis; conditions: read-out: PPB
Hepatitis C virus [2] = assay: Antiviral activity against HCV genotype 1a harboring R155K mutant in RLuc cells assessed as reduction in viral replication by luciferase reporter gene assay; type: functional, organism-based, Hepacivirus hominis; conditions: subtype 1a
[3] = Fraction absorbed in rat at 3 mg/kg, po; type: ADME, organism-based; conditions: in vivo, read-out: Fabs
[4] = Half life in dog at 0.5 mg/kg, iv or 1 mg/kg, po; type: ADME, […], Canis lupus familiaris; conditions: in vivo
Hepatitis C virus [5] = assay: Antiviral activity against HCV genotype 2a in RLuc cells assessed as reduction in viral replication by luciferase reporter gene assay; type: functional, organism-based, Hepacivirus hominis; conditions: subtype 2a
Hepatitis C virus [6] = assay: Antiviral activity against HCV genotype 1a in RLuc cells assessed as reduction in viral replication by luciferase reporter gene assay; type: functional, organism-based, Hepacivirus hominis; conditions: subtype 1a
Hepatitis C virus [7] = assay: Antiviral activity against HCV genotype 2b in RLuc cells assessed as reduction in viral replication by luciferase reporter gene assay; type: functional, organism-based, Hepacivirus hominis; conditions: subtype 2b
[8] = Fraction unbound in rat plasma; type: ADME, cell-free
[9] = Fraction unbound in cynomolgus monkey plasma; type: ADME, cell-free, Macaca fascicularis
[10] = Drug uptake in human hepatocytes; type: ADME, cell-based, Hepatocyte; conditions: TDE = time-dependent effect
Hepatitis C virus [11] = assay: Antiviral activity against HCV genotype 6a in RLuc cells assessed as reduction in viral replication by luciferase reporter gene assay; type: functional, organism-based, Hepacivirus hominis; conditions: subtype 6a
Hepatitis C virus [12] = assay: Antiviral activity against HCV genotype 1b harboring D168E mutant in RLuc cells assessed as reduction in viral replication by luciferase reporter gene assay; type: functional, organism-based, Hepacivirus hominis; conditions: subtype 1b
[13] = Clearance in rat at 1 mg/kg, iv or 3 mg/kg, po; type: ADME, organism-based; conditions: in vivo
[14] = Protein binding in dog plasma; type: ADME, Canis lupus familiaris; conditions: read-out: PPB
[15] = Drug uptake in organic-anion-transporting polypeptide over expressing CHO cells; type: ADME, cell-based, Cricetulus griseus; conditions: chinese hamster, TDE = time-dependent effect
[16] = Fraction unbound in dog plasma; type: ADME, cell-free, Canis lupus familiaris
Hepatitis C virus [17] = assay: Antiviral activity against HCV genotype 1a harboring Q80K mutant in RLuc cells assessed as reduction in viral replication by luciferase reporter gene assay; type: functional, organism-based, Hepacivirus hominis; conditions: subtype 1a
[18] = Volume of distribution at steady state in dog at 0.5 mg/kg, iv or 1 mg/kg, po; type: ADME, […], Canis lupus familiaris; conditions: in vivo, read-out: Vdss
[19] = Half life in rat at 1 mg/kg, iv or 3 mg/kg, po; type: ADME, organism-based; conditions: in vivo
[20] = Oral bioavailability in cynomolgus monkey at 1 mg/kg; type: ADME, organism-based, Macaca fascicularis; conditions: in vivo
Hepatitis C virus [21] = assay: Antiviral activity against HCV genotype 1a harboring A156T mutant in RLuc cells assessed as reduction in viral replication by luciferase reporter gene assay; type: functional, organism-based, Hepacivirus hominis; conditions: subtype 1a
Hepacivirus hominis = assay: Binding affinity to HCV NS3/4a protease assessed as compound-protein adduct formation per mg protein using radiolabelled compound
[22] = Protein binding in human plasma; type: ADME; conditions: read-out: PPB
[23] = Steady state half life in human at 30 to 300 mg administered once daily for 7 days measured under phase 1 clinical trials; type: ADME; conditions: in vivo, read-out: t1/2ss
[24] = Protein binding in rat plasma; type: ADME; conditions: read-out: PPB
Hepatitis C virus [25] = assay: Antiviral activity against HCV genotype 5a in RLuc cells assessed as reduction in viral replication by luciferase reporter gene assay; type: functional, organism-based, Hepacivirus hominis; conditions: subtype 5a
[26] = Oral bioavailability in rat at 3 mg/kg; type: ADME, organism-based; conditions: in vivo
Hepatitis C virus [27] = assay: Antiviral activity against HCV genotype 1b harboring A156T mutant in RLuc cells assessed as reduction in viral replication by luciferase reporter gene assay; type: functional, organism-based, Hepacivirus hominis; conditions: subtype 1b
Hepatitis C virus [28] = assay: Antiviral activity against HCV genotype 3a in RLuc cells assessed as reduction in viral replication by luciferase reporter gene assay; type: functional, organism-based, Hepacivirus hominis, subtype 3a; conditions: Hepatitis C virus, subtype 3a
[29] = Volume of distribution at steady state in rat at 1 mg/kg, iv or 3 mg/kg, po; type: ADME, organism-based; conditions: in vivo, read-out: Vdss
[30] = Fraction absorbed in dog at 1 mg/kg, po; type: ADME, […], Canis lupus familiaris; conditions: in vivo, read-out: Fabs
Hepatitis C virus [31] = assay: Antiviral activity against HCV genotype 1b in RLuc cells assessed as reduction in viral replication by luciferase reporter gene assay; type: functional, organism-based, Hepacivirus hominis; conditions: subtype 1b
[32] = Inhibition of HCV genotype 3a NS3/4a protease by enzymatic assay; set-up: species or system Hepatitis C virus subtype 3a
[33] = Ratio of drug level in dog liver to plasma at 0.5 mg/kg, iv or 1 mg/kg, po measured at 2 hr; type: ADME, […], Canis lupus familiaris
Hepatitis C virus [34] = assay: Antiviral activity against HCV genotype 4a in RLuc cells assessed as reduction in viral replication by luciferase reporter gene assay; type: functional, organism-based, Hepacivirus hominis; conditions: subtype 4a
[35] = Selectivity ratio of EC50 for antiviral activity against HCV genotype 3a to EC50 for antiviral activity against HCV genotype 1a; type: functional
[36] = Ratio of drug level in cynomolgus monkey liver to plasma at 0.5 mg/kg, iv or 1 mg/kg, po measured at 2 hr; type: ADME, organism-based, Macaca fascicularis
[37] = Clearance in dog at 0.5 mg/kg, iv or 1 mg/kg, po; type: ADME, […], Canis lupus familiaris; conditions: in vivo
[38] = Fraction absorbed in cynomolgus monkey at 1 mg/kg, po; type: ADME, organism-based, Macaca fascicularis; conditions: in vivo, read-out: Fabs
[39] = Half life in cynomolgus monkey at 0.5 mg/kg, iv or 1 mg/kg, po; type: ADME, organism-based, Macaca fascicularis; conditions: in vivo
[40] = Oral bioavailability in dog at 1 mg/kg; type: ADME, […], Canis lupus familiaris; conditions: in vivo
[41] = Ratio of drug level in rat liver to plasma at 1 mg/kg, iv or 3 mg/kg, po measured at 2 hr; type: ADME, organism-based
[42] = Volume of distribution at steady state in cynomolgus monkey at 0.5 mg/kg, iv or 1 mg/kg, po; type: ADME, organism-based, Macaca fascicularis; conditions: in vivo, read-out: Vdss
[43] = Clearance in cynomolgus monkey at 0.5 mg/kg, iv or 1 mg/kg, po; type: ADME, organism-based, Macaca fascicularis; conditions: in vivo
[44] = Fraction unbound in human plasma; type: ADME, cell-free

In the case of CC[C@@H]1[C@@H]2CN(C(=O)[C@H](C(C)(C)C)NC(=O)O[C@@H]3C[C@H]3CCCCC(F)(F)c3nc4ccc(OC)cc4nc3O2)[C@@H]1C(=O)N[C@]1(C(=O)NS(=O)(=O)C2(C)CC2)C[C@H]1C(F)F, the fraction unbound [1] is reported as < 0.01, the EC50 (Hepatitis C virus [2]) is reported as 2.7 nM and the Fa [3] is reported as 100%. The half-life [4] was 4.2 h, the EC50 (Hepatitis C virus [5]) was 3.7 nM and the EC50 (Hepatitis C virus [6]) was 3.9 nM. The EC50 (Hepatitis C virus [7]) was 6.6 nM, the Fu [8] was 0.42% and the Fu [9] was 0.91%. The Drug uptake [10] was “Tde”, the EC50 (Hepatitis C virus [11]) was 1.5 nM and the EC50 (Hepatitis C virus [12]) was 4 nM. The clearance [13] was 0.82 L/h/kg, the fraction unbound [14] was < 0.01 and the Drug uptake [15] was “Tde”. The Fu [16] was 0.28%, the EC50 (Hepatitis C virus [17]) was 3.1 nM and the Vd [18] was 0.94 L/kg. For the same compound, the half-life [19] was 0.93 h, the bioavailability [20] was 10% and the EC50 (Hepatitis C virus [21]) was > 500 nM. The PB (Hepacivirus hominis) was < 1 pmol/mg, the fraction unbound [22] was < 0.01 and the half-life [23] was 28 to 41 h. For the same compound, the fraction unbound [24] was < 0.01, the EC50 (Hepatitis C virus [25]) was 1.9 nM and the bioavailability [26] was 83%. For the same compound, the EC50 (Hepatitis C virus [27]) was > 500 nM, the EC50 (Hepatitis C virus [28]) was 6.1 nM and the Vd [29] was 0.84 L/kg. It also gave a Fa [30] of 30%, an EC50 (Hepatitis C virus [31]) of 3.3 nM and a Ki [32] of 0.063 nM. For the same compound, the Kp at 2 h [33] was 55, the EC50 (Hepatitis C virus [34]) was 4.9 nM and the “Ratio EC50” value [35] was <2. The Kp at 2 h [36] was 100, the clearance [37] was 0.19 L/h/kg and the Fa [38] was 23%. For the same compound, the half-life [39] was 2.1 h, the bioavailability [40] was 27% and the Kp at 2 h [41] was > 500. It also gave a Vd [42] of 0.8 L/kg, a clearance [43] of 0.89 L/h/kg and a Fu [44] of 0.46%.
